A short description of series [1]: brain protein binding (brain homogenate). The series is classed as in vitro ADME, mouse.
In series [2] the target is T1, 318 nonolfactory human GPCRs (Homo sapiens, UniProt Q8TDT2).
T1 construct: expressed in transfected cells; host or cells: HTLA cells, transient
The series is classed as cell-based. The following applies: GPR152; C21 5 µM.

Series [3] has as its target T2, 318 nonolfactory human GPCRs (Homo sapiens, UniProt P48039).
T2 construct: expressed in transfected cells; host or cells: HTLA cells, transient
Format: cell-based. The conditions noted are these: MTNR1A; C21 5 µM.

In series [4] the target is T3, 318 nonolfactory human GPCRs (Homo sapiens, UniProt Q8IZP9).
T3 construct: expressed in transfected cells; host or cells: HTLA cells, transient
The series is classed as cell-based. The conditions noted are these: GPR64; C21 5 µM.

For series [5], the target named is T4, 318 nonolfactory human GPCRs (Homo sapiens, UniProt P32247).
T4 construct: expressed in transfected cells; host or cells: HTLA cells, transient
Format: cell-based. The conditions noted are these: BB3; C21 5 µM.

Series [6] has as its target T5, 318 nonolfactory human GPCRs (Homo sapiens, UniProt Q9NS66).
T5 construct: expressed in transfected cells; host or cells: HTLA cells, transient
The series is classed as cell-based. The conditions noted are these: GPR173; C21 5 µM.

Series [7] deals with 318 nonolfactory human GPCRs (Homo sapiens, UniProt P47211). The series is classed as cell-based. The conditions noted are these: GAL1; C21 5 µM.
Series [8] concerns the target T6, 318 nonolfactory human GPCRs (Homo sapiens, UniProt P47775).
T6 construct: expressed in transfected cells; host or cells: HTLA cells, transient
Format: cell-based. The conditions noted are these: GPR12; C21 5 µM.

The target in series [9] is T7, 318 nonolfactory human GPCRs (Homo sapiens, UniProt P48146).
T7 construct: expressed in transfected cells; host or cells: HTLA cells, transient
Format: cell-based. The following applies: NPBW2; C21 5 µM.

For series [10], the target named is T8, 318 nonolfactory human GPCRs (Homo sapiens, UniProt Q9H1Y3).
T8 construct: expressed in transfected cells; host or cells: HTLA cells, transient
Format: cell-based. The conditions noted are these: OPN3; C21 5 µM.

Series [11] deals with 318 nonolfactory human GPCRs (Homo sapiens, UniProt P25090). The series is classed as cell-based. The following applies: FPR2; C21 5 µM.
Series [12] concerns the target T9, 318 nonolfactory human GPCRs (Homo sapiens, UniProt Q99527).
T9 construct: expressed in transfected cells; host or cells: HTLA cells, transient
The series is classed as cell-based. The following applies: GPER; C21 5 µM.

Series [13] deals with T10, 318 nonolfactory human GPCRs (Homo sapiens, UniProt Q8TDV0).
T10 construct: expressed in transfected cells; host or cells: HTLA cells, transient
The series is classed as cell-based. The conditions noted are these: GPR151; C21 5 µM.

Series [14] addresses T11, 318 nonolfactory human GPCRs (Homo sapiens, UniProt O95838).
T11 construct: expressed in transfected cells; host or cells: HTLA cells, transient
Format: cell-based. The following applies: GLP2R; C21 5 µM.

Series [15] addresses T12, 318 nonolfactory human GPCRs (Homo sapiens, UniProt Q9BXA5).
T12 construct: expressed in transfected cells; host or cells: HTLA cells, transient
The series is classed as cell-based. The conditions noted are these: SUCNR1; C21 5 µM.

In series [16] the target is 318 nonolfactory human GPCRs (Homo sapiens, UniProt P43220). The series is classed as cell-based. The conditions noted are these: GLP1R; C21 5 µM.
For series [17], the target named is T13, 318 nonolfactory human GPCRs (Homo sapiens, UniProt Q9Y2T6).
T13 construct: expressed in transfected cells; host or cells: HTLA cells, transient
The series is classed as cell-based. The conditions noted are these: GPR55; C21 5 µM.

For series [18], the target named is T14, 318 nonolfactory human GPCRs (Homo sapiens, UniProt P35368).
T14 construct: expressed in transfected cells; host or cells: HTLA cells, transient
Format: cell-based. The following applies: ADRA1B; C21 5 µM.

The target of another series is T15, hM1 (Homo sapiens, UniProt P11229).
T15 sequence (P11229 1-460): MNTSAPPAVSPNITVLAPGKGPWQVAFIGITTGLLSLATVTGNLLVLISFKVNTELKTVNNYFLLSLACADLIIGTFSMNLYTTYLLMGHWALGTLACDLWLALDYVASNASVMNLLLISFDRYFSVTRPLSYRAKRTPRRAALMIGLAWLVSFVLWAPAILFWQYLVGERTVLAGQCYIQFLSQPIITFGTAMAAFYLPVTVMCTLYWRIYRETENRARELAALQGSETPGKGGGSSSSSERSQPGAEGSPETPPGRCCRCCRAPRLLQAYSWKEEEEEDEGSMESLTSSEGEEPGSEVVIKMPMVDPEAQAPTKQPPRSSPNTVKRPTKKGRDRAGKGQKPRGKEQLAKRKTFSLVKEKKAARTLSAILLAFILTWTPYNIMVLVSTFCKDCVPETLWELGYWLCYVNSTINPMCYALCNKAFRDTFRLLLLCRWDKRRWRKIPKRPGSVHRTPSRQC
The series is described as follows: ERK1/2 phosphorylation (pERK1/2) assay. The series is classed as cell-based. The following applies: wildtype hM1.

The next series deals with T16, histamine H4 receptors (Homo sapiens, UniProt Q9H3N8).
T16 construct: expressed in transfected cells; host or cells: HEK293T, transient
The series is described as follows: cAMP signaling concentration-response, agonist mode. Format: cell-based. As to the method:
(§1) HEK293 T cells were used for transient transfections and Gi mediated cAMP production assays. Assays were performed according to published procedures (PMID25895059, PRESTO-Tango paper). More detailed assay protocols are available at NIMH PDSP Web site (http://pdspdb.unc.edu/pdspWeb/?site=assays).

A further series deals with dopamine D2 receptors (Homo sapiens, UniProt P14416). The description is as above. Format: cell-based. On the procedure: as §1
For another series, the target named is dopamine D3 receptors (Homo sapiens, UniProt P35462). The series is described as above. Format: cell-based. On the procedure:
as §1

Another series addresses T17, hM4 (Homo sapiens, UniProt P08173).
T17 construct: HA (hemagglutinin); expressed in transfected cells
T17 sequence (P08173 1-479): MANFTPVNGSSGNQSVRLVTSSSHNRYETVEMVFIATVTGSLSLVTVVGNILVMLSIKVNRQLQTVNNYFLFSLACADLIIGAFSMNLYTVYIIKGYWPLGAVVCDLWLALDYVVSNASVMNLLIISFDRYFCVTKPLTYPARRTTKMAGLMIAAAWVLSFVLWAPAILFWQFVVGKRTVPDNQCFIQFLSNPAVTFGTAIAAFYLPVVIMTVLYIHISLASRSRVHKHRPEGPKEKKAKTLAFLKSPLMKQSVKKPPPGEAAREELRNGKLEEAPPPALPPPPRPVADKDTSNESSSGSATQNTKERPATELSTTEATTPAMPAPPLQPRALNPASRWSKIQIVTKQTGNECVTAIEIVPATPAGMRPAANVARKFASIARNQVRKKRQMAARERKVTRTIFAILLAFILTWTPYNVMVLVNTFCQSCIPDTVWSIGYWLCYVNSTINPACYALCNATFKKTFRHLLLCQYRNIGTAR
Put plainly: whole-cell [3H]NMS competition binding. The conditions noted are these: hM4, FlpIn CHO cells, mean (±SEM).

Molecules are shown by their SMILES. Where “and” joins values, the source holds several entries; their conditions need not be identical. Equal entries are not always repeated.

T7 sequence (P48146 whole entry): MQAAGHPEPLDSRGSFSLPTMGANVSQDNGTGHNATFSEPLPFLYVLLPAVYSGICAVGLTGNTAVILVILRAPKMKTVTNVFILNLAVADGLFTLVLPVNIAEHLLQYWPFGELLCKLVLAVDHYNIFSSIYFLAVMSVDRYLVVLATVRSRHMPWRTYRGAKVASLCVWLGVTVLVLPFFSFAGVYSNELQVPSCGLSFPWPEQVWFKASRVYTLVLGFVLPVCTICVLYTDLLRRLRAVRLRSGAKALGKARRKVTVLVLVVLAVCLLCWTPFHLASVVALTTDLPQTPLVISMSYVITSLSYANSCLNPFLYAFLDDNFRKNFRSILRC
T3 sequence (Q8IZP9 38-1017): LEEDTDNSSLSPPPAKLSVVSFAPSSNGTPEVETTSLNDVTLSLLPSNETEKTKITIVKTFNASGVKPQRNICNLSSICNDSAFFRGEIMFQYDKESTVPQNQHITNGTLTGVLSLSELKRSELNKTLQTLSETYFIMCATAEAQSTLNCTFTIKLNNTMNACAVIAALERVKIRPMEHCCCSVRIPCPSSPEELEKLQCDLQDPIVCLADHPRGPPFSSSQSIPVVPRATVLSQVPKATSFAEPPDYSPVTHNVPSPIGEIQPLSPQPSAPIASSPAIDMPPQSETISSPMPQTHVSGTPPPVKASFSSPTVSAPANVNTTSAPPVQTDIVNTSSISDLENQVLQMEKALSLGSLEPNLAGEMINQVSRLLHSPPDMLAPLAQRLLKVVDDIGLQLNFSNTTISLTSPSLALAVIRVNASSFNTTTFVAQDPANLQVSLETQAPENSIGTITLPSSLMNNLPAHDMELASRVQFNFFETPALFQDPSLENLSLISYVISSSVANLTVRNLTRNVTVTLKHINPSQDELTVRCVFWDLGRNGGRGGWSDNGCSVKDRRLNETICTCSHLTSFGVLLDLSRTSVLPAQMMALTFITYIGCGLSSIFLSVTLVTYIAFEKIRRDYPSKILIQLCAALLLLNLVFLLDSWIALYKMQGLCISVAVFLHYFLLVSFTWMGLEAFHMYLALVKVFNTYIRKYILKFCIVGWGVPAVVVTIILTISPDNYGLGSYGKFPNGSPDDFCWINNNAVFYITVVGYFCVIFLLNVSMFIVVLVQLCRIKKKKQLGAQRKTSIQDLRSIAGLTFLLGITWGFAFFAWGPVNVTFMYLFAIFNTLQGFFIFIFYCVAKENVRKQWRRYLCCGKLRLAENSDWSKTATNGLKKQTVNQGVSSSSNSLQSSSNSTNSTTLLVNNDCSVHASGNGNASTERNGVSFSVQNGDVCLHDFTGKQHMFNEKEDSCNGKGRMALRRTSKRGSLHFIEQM
Chain of 318 nonolfactory human GPCRs (Homo sapiens, UniProt P47211) (P47211 whole entry): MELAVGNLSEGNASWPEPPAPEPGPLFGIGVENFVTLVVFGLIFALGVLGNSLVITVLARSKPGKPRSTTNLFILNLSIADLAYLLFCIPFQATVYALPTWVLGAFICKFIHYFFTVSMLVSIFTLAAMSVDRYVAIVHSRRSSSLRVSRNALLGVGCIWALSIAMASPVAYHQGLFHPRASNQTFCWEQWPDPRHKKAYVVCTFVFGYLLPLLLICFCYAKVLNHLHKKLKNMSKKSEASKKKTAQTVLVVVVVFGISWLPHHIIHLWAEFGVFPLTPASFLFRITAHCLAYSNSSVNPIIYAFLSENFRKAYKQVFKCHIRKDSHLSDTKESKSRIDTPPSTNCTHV
T9 sequence (Q99527 whole entry): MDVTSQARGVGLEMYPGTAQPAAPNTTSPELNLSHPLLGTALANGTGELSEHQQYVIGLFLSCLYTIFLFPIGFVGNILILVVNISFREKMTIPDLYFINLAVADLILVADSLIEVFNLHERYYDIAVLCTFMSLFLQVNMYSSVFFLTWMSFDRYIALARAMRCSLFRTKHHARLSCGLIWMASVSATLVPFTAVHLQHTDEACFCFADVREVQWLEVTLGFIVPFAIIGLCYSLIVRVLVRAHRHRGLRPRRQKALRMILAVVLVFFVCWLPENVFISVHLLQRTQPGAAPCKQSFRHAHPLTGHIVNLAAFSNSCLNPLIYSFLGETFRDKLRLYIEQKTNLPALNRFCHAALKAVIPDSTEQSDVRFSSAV
Chain of 318 nonolfactory human GPCRs (Homo sapiens, UniProt P43220) (P43220 24-463): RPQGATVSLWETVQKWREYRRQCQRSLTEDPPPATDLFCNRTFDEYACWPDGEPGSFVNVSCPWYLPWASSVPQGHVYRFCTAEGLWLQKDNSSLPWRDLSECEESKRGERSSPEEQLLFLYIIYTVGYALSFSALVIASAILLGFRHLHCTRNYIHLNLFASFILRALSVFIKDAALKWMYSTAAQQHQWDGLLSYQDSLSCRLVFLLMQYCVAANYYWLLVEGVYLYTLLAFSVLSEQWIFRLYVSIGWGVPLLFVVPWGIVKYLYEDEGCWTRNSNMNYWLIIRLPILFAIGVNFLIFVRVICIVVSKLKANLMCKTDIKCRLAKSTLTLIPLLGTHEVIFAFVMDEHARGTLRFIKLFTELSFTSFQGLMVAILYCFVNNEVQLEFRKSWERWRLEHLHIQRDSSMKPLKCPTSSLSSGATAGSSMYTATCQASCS
T1 sequence (Q8TDT2 whole entry): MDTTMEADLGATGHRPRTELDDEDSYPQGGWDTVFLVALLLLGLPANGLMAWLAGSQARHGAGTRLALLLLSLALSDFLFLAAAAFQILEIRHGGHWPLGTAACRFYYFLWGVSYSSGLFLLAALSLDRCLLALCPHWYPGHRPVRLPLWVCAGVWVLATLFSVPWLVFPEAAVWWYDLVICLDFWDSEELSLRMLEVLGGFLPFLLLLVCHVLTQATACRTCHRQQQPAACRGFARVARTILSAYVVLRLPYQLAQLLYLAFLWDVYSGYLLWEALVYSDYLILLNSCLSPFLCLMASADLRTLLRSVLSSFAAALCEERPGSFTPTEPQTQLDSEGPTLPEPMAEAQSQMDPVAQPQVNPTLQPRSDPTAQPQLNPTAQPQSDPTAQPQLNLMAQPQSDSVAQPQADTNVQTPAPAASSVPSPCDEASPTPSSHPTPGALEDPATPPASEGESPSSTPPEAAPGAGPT
T13 sequence (Q9Y2T6 whole entry): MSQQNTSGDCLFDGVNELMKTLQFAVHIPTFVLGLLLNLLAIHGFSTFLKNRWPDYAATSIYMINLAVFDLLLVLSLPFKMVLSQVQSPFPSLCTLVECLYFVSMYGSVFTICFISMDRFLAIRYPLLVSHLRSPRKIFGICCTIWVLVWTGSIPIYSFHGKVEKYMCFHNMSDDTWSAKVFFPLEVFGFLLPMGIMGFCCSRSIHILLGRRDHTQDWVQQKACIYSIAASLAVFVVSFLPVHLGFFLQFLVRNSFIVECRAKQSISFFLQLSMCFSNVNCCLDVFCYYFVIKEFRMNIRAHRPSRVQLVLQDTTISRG
T14 sequence (P35368 whole entry): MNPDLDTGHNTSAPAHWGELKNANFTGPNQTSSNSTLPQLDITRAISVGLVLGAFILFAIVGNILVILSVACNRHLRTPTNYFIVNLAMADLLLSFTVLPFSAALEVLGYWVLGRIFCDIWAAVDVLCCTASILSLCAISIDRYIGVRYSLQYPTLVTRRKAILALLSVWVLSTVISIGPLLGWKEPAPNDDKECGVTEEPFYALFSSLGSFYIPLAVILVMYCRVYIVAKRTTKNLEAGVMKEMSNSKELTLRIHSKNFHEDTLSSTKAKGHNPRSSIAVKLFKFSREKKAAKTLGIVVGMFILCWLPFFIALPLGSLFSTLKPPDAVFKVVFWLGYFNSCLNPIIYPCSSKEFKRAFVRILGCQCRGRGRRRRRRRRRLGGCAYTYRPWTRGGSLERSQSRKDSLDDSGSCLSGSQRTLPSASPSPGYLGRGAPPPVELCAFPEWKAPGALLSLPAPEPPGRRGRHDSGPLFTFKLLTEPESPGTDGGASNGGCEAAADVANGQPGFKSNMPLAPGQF
T8 sequence (Q9H1Y3 whole entry): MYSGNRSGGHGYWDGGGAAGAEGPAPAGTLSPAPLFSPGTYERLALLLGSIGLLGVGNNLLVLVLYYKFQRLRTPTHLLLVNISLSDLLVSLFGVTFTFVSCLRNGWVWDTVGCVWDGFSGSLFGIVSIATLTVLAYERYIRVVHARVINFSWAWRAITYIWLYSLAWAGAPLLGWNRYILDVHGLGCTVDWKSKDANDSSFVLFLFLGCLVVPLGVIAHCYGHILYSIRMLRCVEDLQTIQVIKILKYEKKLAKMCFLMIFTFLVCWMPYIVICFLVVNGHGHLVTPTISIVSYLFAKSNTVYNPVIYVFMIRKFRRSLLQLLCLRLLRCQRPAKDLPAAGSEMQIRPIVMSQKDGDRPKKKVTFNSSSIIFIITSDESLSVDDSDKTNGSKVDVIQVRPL
T4 sequence (P32247 whole entry): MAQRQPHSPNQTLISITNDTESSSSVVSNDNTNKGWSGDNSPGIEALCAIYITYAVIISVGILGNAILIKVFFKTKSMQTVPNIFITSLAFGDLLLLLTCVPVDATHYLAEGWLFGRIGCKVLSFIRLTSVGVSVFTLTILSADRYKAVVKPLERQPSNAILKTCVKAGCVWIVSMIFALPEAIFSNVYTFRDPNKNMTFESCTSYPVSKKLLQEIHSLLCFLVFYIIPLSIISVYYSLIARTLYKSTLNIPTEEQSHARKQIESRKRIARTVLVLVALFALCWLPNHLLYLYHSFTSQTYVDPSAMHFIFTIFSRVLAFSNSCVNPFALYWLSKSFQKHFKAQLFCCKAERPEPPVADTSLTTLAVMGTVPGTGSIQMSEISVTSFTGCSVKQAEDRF
T2 sequence (P48039 whole entry): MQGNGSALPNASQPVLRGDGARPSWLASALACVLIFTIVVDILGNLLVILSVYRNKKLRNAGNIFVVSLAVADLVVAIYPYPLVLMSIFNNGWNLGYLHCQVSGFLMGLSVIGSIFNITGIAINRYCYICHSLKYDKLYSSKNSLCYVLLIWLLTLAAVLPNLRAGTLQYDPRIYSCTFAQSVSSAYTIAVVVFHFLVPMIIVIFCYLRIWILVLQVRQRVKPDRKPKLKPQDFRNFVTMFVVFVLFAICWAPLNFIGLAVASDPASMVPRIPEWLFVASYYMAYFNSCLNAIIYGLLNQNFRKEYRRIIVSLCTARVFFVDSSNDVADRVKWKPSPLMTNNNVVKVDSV

As a reminder, the fraction unbound is free concentration divided by total concentration. Low values mean little free substance, high ones much free substance. Usually Ki stands for the equilibrium dissociation constant of an inhibitor or competing ligand from its target. Read a high Ki as lower affinity. `c1ccc2c(c1)N=C(N1CCNCC1)c1ccccc1N2` [C21, 11-(1-piperazinyl)-5H-dibenzo[b,e][1,4]diazepine] had an unbound in brain in series [1] (brain) of 4.9%. For the same compound, in series [1] (mouse, brain homogenate), the unbound share (fraction unbound) was 0.05. Further, the “FOLD OVER BASAL” value is 0.5 fold and 0.7 fold and 0.6 fold in [2]; 1.1 fold and 0.9 fold and 1 fold in series [3]; 0.6 fold and 0.7 fold and 0.8 fold in series [4]; 0.9 fold and 1.3 fold and 1 fold in series [5]; 0.8 fold and 0.5 fold in [6]; 0.7 fold and 0.5 fold and 0.9 fold and 0.8 fold in [7]. Moreover, the “FOLD OVER BASAL” value in series [8] is 0.5 fold and 0.7 fold and 0.6 fold; in series [9], 1.1 fold and 1.3 fold and 1.4 fold; in [10], 1.1 fold and 0.7 fold and 0.9 fold and 0.6 fold; in series [11], 1 fold and 1.1 fold and 0.9 fold; in series [12], 0.4 fold and 0.2 fold and 0.3 fold; in [13], 0.6 fold and 0.5 fold. Besides, the “FOLD OVER BASAL” value in series [14] was 0.7 fold and 0.8 fold and 0.5 fold and 0.9 fold; in series [15], 0.6 fold and 0.7 fold; in series [16] it was 0.6 fold and 0.8 fold and 0.7 fold and 0.5 fold; in series [17], 0.7 fold and 1 fold and 0.8 fold; in [18] it was 1 fold and 0.8 fold and 1.1 fold and 0.7 fold. On hM1, the “agonist activity in pERK1/2 assay” value is on record as “no agonist activity”. Also, the “agonist activity, follow-up concentration-response (cAMP)” value on histamine H4 receptors, on dopamine D2 receptors and on dopamine D3 receptors was “minimal activity” throughout. Moreover, affinity at hM4 was put at a Ki of 3.63 µM.

Source of the values: PMC6407913, “DREADD Agonist 21 Is an Effective Agonist for Muscarinic-Based DREADDs in Vitro and in Vivo” (ACS Pharmacology & Translational Science, 2018).
